Experiments:
C-26 cells = assay: Platinum complex intracellular accumulation (FAAS); type: cell-based, human; conditions: C-26, 24 hr
Protocol: (§1) Cells were seeded for 48 hr before one of the complexes was added to the culture medium. After 24 hr of exposure, the complexes were removed and the cells washed twice with ice-cold PBS and pelleted. The cells (1*10^6) were dried and mineralized by heating for 10 min in 65% HNO3 (BDH, England)^(22). Samples were dissolved in de-ionized water and each sample was measured at two different dilutions by flameless Zeeman atomic absorption spectrometer (FAAS). The calibration curves included 5 standards of K2PtCl4 stock solution with concentrations ranging from 50 to 250 ng platinum per ml. Platinum content was expressed as picomoles platinum per 1*10^6 cells.
(§2) The Pt content associated with the cells was measured by Atomic Absorption Spectroscopy (AAS).

OV-1063 cells [1] = assay: Platinum complex intracellular accumulation (FAAS); type: cell-based, human; conditions: OV-1063, 24 hr
Protocol: as §1, §2

OV-1063 cells [2] = assay: Determination of Pt-DNA adducts by FAAS; type: cell-based, human
plasmid pS16-hGH DNA = assay: Determination of Pt-DNA adducts by EtBr fluorescence; type: binding; conditions: DNA modified 24 hr
Protocol: A plasmid (4.8 kbp) containing a gene coding for human growth hormone, plasmid pS16-hGH, was prepared as previously described^(23). The freshly prepared DNA was analyzed by agarose gel (1%) electrophoresis using post-staining with SYBR Green I fluorescent dye (Molecular Probes, Eugene, Oreg.). […] The ratio of absorbance at 260 nm to that at 280 nm was always between 1.8 and 1.9.
DNA were modified by the platinum complexes in 10 mM NaClO4 (pH 7.0) at 37° C. in the dark for 24 hr. Measurements of EtBr fluorescence were performed on an LS50B luminescence spectrometer (Perkin Elmer, Norwalk, Conn.). Fluorescence measurements of DNA modified by platinum in the presence of EtBr were performed using the excitation wavelength of 546 nm (slit 10 run) and emission wavelength of 590 nm (slit 10 nm) at 25° C. The concentrations were 0.01 mg/ml for DNA and 0.04 mg/ml for EtBr, which corresponded to the saturation of all intercalation sites of EtBr in DNA.
EtBr, as the fluorescent probe, was used to distinguish between perturbations induced in DNA by adducts of platinum (II) compounds^(14). Binding of EtBr by intercalation is blocked in a stoichiometric manner by formation of the bifunctional adducts, as of Cis-Pt, which results in a loss of fluorescence intensity. On the other hand, formation of monofunctional adducts results only in a slight decrease of EtBr fluorescence.

Structure (SMILES): C1CCNCC1.Cc1ccncc1.[Cl][Pt][Cl] [Complex 5, trans-[PtCl2(4-picoline)(piperidine)]]
- Penetration to cells (C-26 cells): 14974 pmol Pt/1 * 10^6 cells
- Penetration to cells (OV-1063 cells [1]): 2092 pmol Pt/1 * 10^6 cells
- Pt-DNA adducts (OV-1063 cells [2]; OV-1063, 24 hr): 41 pmol Pt/50 μg DNA
- DNA platination relative to Cis-Pt (OV-1063 cells [2]; OV-1063 cells): the same
- decrease of EtBr fluorescence intensity by DNA adducts (plasmid pS16-hGH DNA): lower than that of cisplatin, however, greater than that of transplatin
